Source: PMC12818720, “Nanoengineered Self-Assembling Peptides with Increased Proteolytic Stability Promote Wound Healing” (ACS Applied Materials & Interfaces, 2025)
Ends that are not written are not given here.

Tests used:
HaCaT cells = test: Cytotoxicity / metabolic activity, AlamarBlue direct contact assay; format: cell-based, human; details: assembly performed in the presence of Cu2+ (1:1), 24 h, serum-free DMEM-HG
Method: As the designed systems target wound healing, we assessed their cytocompatibility toward human keratinocyte cell line HaCaT.
The cytotoxicity evaluation of the peptides and their supramolecular assemblies was evaluated by direct contact assay with HaCaT cells using the AlamarBlue HS Cell Viability Reagent assay (Biorad). Briefly, HaCaT cells were cultured in DMEM-HG supplemented with 10% FBS (2.5 × 10^4 cell/well) in 96-well plates for 24 h. Peptide solutions (10 mM) were prepared 24 h before the assay and sterilized (UV, 30 min). These solutions were diluted in serum-free DMEM-HG just prior to the assay to obtain concentrations ranging from 1 to 0.05 mM and added to the cultured HaCaT cells. Cultures with the peptides were mantained for 24 h and then the medium was aspirated, and AlamarBlue HS Cell Viability solution (10% (v/v) in DMEM-HG) was added to each well. The plates were incubated for 3 h at 37 °C with 5% CO2. The medium from each well was transferred to a black 96-well plate, and the fluorescence was measured using a microplate reader (Synergy, Bio-Tek) with an excitation wavelength of 550 nm and an emission wavelength of 590 nm. Cells cultured on tissue culture polystyrene (TCPS) were used as a positive control and cells treated with 20% DMSO were used as a negative one.

proteinase K = molecular target: T1, proteinase K (Parengyodontium album, UniProt P06873); test: Stability of peptide assemblies against proteinase K (HPLC); format: in vitro ADME; details: in the presence of Cu2+, peptide 2 mM
T1 construct: purchased AppliChem
T1 sequence (P06873 106-384): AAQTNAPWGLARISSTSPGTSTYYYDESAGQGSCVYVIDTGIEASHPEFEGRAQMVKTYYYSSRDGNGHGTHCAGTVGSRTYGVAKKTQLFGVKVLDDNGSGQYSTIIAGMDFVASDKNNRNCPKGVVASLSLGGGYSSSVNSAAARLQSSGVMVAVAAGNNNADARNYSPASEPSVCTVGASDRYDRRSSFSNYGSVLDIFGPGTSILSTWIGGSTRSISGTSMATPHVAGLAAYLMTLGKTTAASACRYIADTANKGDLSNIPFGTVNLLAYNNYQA
Method: The chemical structure and molecular packing of the peptides play a crucial role in their stability by (un)-shielding the amide bonds from enzymatic degradation. − We investigated the stability of the supramolecular assemblies generated by Pep1–Pep3 in the presence of proteinase K. This enzyme was selected because of its activity toward a broad range of peptides/proteins that spans different temperatures (25–65 °C) and pH values (7–12).
A stock solution of proteinase K (50 μg/mL, AppliChem) was prepared in PBS. Peptide assemblies were prepared as described in Section 1 day prior the assay. These samples were incubated with proteinase K (final concentration: 10 μg/mL for proteinase K and 2 mM for Cu-free or Cu-complexed Pep1-Pep3). At each designated time point, an aliquot of 150 μL was collected, and the enzymatic activity was stopped by adding 300 μL of 1:1 H2O/ACN with 0.1% TFA. The aliquot was quantitatively assessed using HPLC under the conditions described in Section . Each sample was run in duplicate to ensure reliable results.

Row | Sequence | concentration above which cytotoxicity was observed (HaCaT cells) | peptide not degraded after 6 h of incubation with proteinase K (proteinase K; proteinase K 10 μg/mL in PBS, 6 h, HPLC read-out, run in duplicate) | initial concentration still present after 24 h with proteinase K (proteinase K; proteinase K 10 μg/mL in PBS, 24 h, HPLC read-out, run in duplicate) | relative stability to proteinase K (in words) (proteinase K; proteinase K 10 μg/mL, HPLC)
1 | FFFFDKHG [Pep3] | above 250 μM | more than 90% | 60% | most stable
2 | FFFFDGHK [Pep2] | above 250 μM | – | – | –
